Values of other authors, collected in patent publication US6638535B2, “Modified release formulations containing a hypnotic agent” (Synthon BV, priority 2000, dated 2003).

Settings: in therapy, after ingestion of the commercial immediate release tablet

Cc1ccc(-c2nc3ccc(C)cn3c2CC(=O)N(C)C)cc1 [zolpidem, N,N,6-trimethyl-2-(4-methylphenyl)-imidazo[1,2-s]pyridine-3-acetamide]
duration of action (action lasts): 4 to 6 h | onset of action (starts acting) ('or even earlier'): 15 to 30 min
